Source: patent US8618114B2 (priority 2008, dated 2013)
Where a name gives a salt, the structure may show the parent alone.

Tests used:
[1] = target: T1, 5-HT6 receptor (Homo sapiens (Human), UniProt P50406); assay: functional assay for serotonin 5-HT6 receptor inhibition (serotonin-induced intracellular cAMP, LANCE cAMP kit, HEK 293 cells); format: cell-based; settings: HEK 293 cells with expressed 5-HT6 receptor; reduction of serotonin-induced intracellular cAMP
Method: Determination of antagonistic activity of compounds of the general formula 1 towards 5-HT6 receptors. Compounds of the general formula 1 were tested for their ability to prevent 5-HT6 receptors activation by serotonin. HEK 293 cells (cells of human embryo's kidney) with artificially expressed 5-HT6 receptor, activation of which by serotonin leads to increasing the concentration of intracellular cAMP, were used. The level of intracellular cAMP was determined using reagent kit LANCE cAMP (PerkinElmer) according to the method described by the manufacturer of the kit [http://las.perkinelmer.com/content/Manuals/MAN_LANCEcAMP384KitUser.pdf]. Effectiveness of the compounds was estimated by their ability to reduce the level of intracellular cAMP induced by serotonin. Table 4 presents IC50 values for the compounds of general formula 1 in the setting of functional assay for serotonin 5-HT6 receptor inhibition. The data given testify their moderate or high antagonistic activity.

[2] = target: T1, 5-HT6 receptor; assay: competitive radioligand binding ([3H] Lysergic acid diethylamide) to serotonin 5-HT6 receptors, HeLa cell membranes; settings: read-out: IC50, competitive assay of serotonin 5-HT6 receptor inhibition; displacement of 1.5 nM [3H] Lysergic acid diethylamide, 120 min at 37° C.
Method: Determination of activity of the compounds of the general formula 1 in the setting of competitive binding to serotonin 5-HT6 receptors.
Screening of the disclosed compounds for their potential ability to interact with serotonin 5-HT6 receptors was carried out by method of radioligand binding. For this purpose membrane species were prepared from expressing recombinant human 5-HT6 receptors HeLa cells by means of their homogenization in glass homogenizer with subsequent separation of plasmatic membranes from cell nucli, mitochondria's and cell wreckages by differential centrifugation. Determination of tested compounds binding to 5-HT6 receptors was carried out according to the method described in [Monsma F J Jr, Shen Y, Ward R P, Hamblin M W and Sibley D R, Cloning and expression of a novel serotonin receptor with high affinity for tricyclic psychotropic drugs. […] After incubation the samples were filtered in vacuo on glass-microfiber filters G/F (Millipor, USA), filters were washed three times with cold solution of the medium and radioactivity was measured by scintillation counter MicroBeta 340 (PerkinElmer, USA). Nonspecific binding which made up 30% of overall binding was determined by incubation of membrane preparations with radioligand in the presence of 5 μM Serotonin (5-HT). Methiothepin was used as positive control. Binding of the tested compounds to the receptor was determined by their ability to displace the radioligand and expressed in percent of displacement. The percent of displacement was calculated according to the following equation:
[formula] wherein: TA—was overall radioactivity in the presence of radioligand only, CA—was radioactivity in the presence of radioligand and tested compound and NA—was radioactivity in the presence of radioligand and Serotonin (5 μM).

[3] = system: male mice of BALB/c line; assay: Mice Behavior in the Elevated Plus Maze; format: in vivo, mouse; settings: for anxiolytic activity in the elevated plus maze: tested compounds i.p., FIG. 14-16
Method: Anxiolytic activity of compounds 1.1(11), 1.2.7(1), 1.2.6(1), 1.2.3(1), 1.2.11(1), 1.2.22(1), 1.2.22(18) in test “Mice Behavior in the Elevated Plus Maze”. The experiments were carried out in aged male mice of BALB/c line weighing about 25 g. The animals were housed 5-7 per cage with water and food available. None of the animals was acquainted with the experimental set-up before. Each experimental group included 8 animals.
The procedure used was described earlier by Lister (Lister R. G. The use of a plus-maze to measure anxiety in the mouse. Psychopharmacology, 1987; 92:180-185). Plexiglass set-up consisted of two opened arms of 30×5 cm size and two closed arms of 30×5×15 cm size. Side arms were closed with transparent plexiglass and were connected with the central zone via a platform of 5×5 cm size. The opened arms, central platform and floor were made of black plexiglass. The set-up was mounted on a metallic base which was placed 38.5 cm above the floor level.
The animals were injected intraperitoneally with placebo, Buspirone (5 mg/kg, 30 minutes before training), Lorazepam (0.05 mg/kg, 60 minutes before training) or with one of the tested compounds 1.1(11), 1.2.7(1), 1.2.6(1), 1.2.3(1), 1.2.11(1), 1.2.22(1), 1.2.22(18). Buspirone and Lorazepam were introduced in a maximal effective dose, at which side sedative effect and general decrease of exploratory activity (the number of arm entries during the test) were not observed yet.
Each mouse was placed in the maze center with its head towards the opened arm. Over a period of 5 minutes the sequence and duration of arm entries were registered by means of a computer program. Criterion for entry is a location of all animal's paws inside the arm at the same time. The index of preference was calculated as a ratio of the time spent by the animal in the opened arms as well as the number of entries into the opened arms to the total time spent by it in the opened and closed arms or, respectively, to the whole number of entries to the arms of both types. The number of defecations left by a mouse was regarded as an additional parameter characterizing the anxiety state. Being in normal state the animals usually avoid open arms (the preference index is between 0.2 and 0.3).

[4] = system: male mice of SHK line; assay: Novel object recognition test, Scopolamine amnesia model; format: in vivo, mouse; settings: Scopolamine 1 mg/kg i.p.
Method: 14.1.2. Novel object recognition test. The test was carried out in aged male mice of SHK line. […] A mouse was placed into the central chamber and allowed to explore the maze. The floor was cleaned after each animal. The sequence of chamber entries and duration of visits were registered by the observer. The test was ended after 13 entries into the dead-end chambers. Criterion for entry was a location of all animal's paws inside the chamber at the same time.
During the training the animal was placed in the maze with one equiform bowl in each side chamber. In the course of testing (one hour after training) two opposite standing bowls were replaced by identical flasks, and the animal was allowed to explore the maze. The time spent by the animal in each side chamber was registered during the periods of training and testing. Index of novel object recognition was calculated as the ratio of time spent by the animal in the side chambers with novel objects to the total time spent by it in all side chambers.

[5] = system: rats; assay: Passive avoidance in the shuttle chamber, amnesia caused by MK-801, rats; format: in vivo, rat; settings: MK-801 0.1 mg/kg i.p., compounds injected 60 minutes before the test, FIG. 8-10
[6] = system: Mice of SHK line; assay: Prepulse inhibition of the startle response in mice (Apomorphine model); format: in vivo, mouse; settings: 1 mg/kg i.p. 60 minutes before the test; FIG. 17
Method: Mice of SHK line weighing about 24-30 g were used in the test. The experiments were carried out during the light period of animal's diurnal. Apomorphine hydrochloride and Haloperidol were received from Sigma Chemicals Company, (USA). Apomorphine hydrochloride was dissolved in 0.1% solution of ascorbic acid prepared with sterilized water; it was introduced subcutaneously 15 minutes before the test. Haloperidol was dissolved in sterilized water using emulsifier Twin 80, it was introduced intraperitoneally 60 minutes before the test. Compounds 1.2.22(1), 1.2.22(18), 1.2.7(1) were dissolved in sterilized water and introduced intraperitoneally 60 minutes before the test. The injection volume was 10 ml/kg. 0.1%. Solution of ascorbic acid, prepared with sterilized water and Twin 80, was injected to control group of animals.
The test instrument consisted of a chamber made of transparent plexiglass (manufacturer—Columbia Instruments Company, USA) and placed on the platform; the latter was lodged inside the sound insulating chamber. A high frequency sound column transmitting acoustic stimuluses was located 2 cm away from the platform. […] The level of background noise made up 65 dB. Each animal received 4 stimuli of single testing (pulse) stimulus of 50 ms duration and 105 dB or prepulsory stimulus (pre-pulse) of 20 ms duration and 85 dB, after which in 30 ms pulse stimulus of 50 ms duration and 105 dB followed. Time interval between repeated pulse or prepulse in combination with pulse stimuli made up 10 s. Inhibition of the startle in reply to prepulse-plus-pulse stimulus was calculated in percentage towards amplitude of startle in response to isolated pulse stimulus.

[7] = system: male rats; assay: Passive avoidance in the shuttle chamber, Scopolamine amnesia model, rats; format: in vivo, rat; settings: compounds injected 60 minutes before the test, read 24 hours after training, FIG. 1-3
Method: 14.1.1. Passive Avoidance of mice in the Shuttle Chamber. The experiments were carried out in aged male mice of BALB/c line weighing 20-24 g or male rats weighing 200-250 g.
A shuttle chamber (Ugo Basile, Italy) that consisted of two sections was used. One section was white and lightened, the other one was dark. The sections were connected through a hole which could be overlapped by automatic vertical door. The floor of the dark section was made of transverse metal bars on which DC current impulses could be fed.
On the first day of testing 30 minutes before training the animals were injected intraperitoneally with Scopolamine which causes disturbance of training (memory loss). The animals of the trial group were additionally administered with one of the tested compounds. The animals of the control group were injected with physiological solution. Each group consisted of 8 animals. The animals were placed in the light section, and latent period of the first entry into the dark chamber was registered. Then vertical door was closed and the animal was punished by 0.6 mA DC current for 3 seconds. After that the animal was taken back to its home cage. […]

[8] = compounds i.p. 60 minutes before training, FIG. 7

T1 sequence (P50406 whole entry): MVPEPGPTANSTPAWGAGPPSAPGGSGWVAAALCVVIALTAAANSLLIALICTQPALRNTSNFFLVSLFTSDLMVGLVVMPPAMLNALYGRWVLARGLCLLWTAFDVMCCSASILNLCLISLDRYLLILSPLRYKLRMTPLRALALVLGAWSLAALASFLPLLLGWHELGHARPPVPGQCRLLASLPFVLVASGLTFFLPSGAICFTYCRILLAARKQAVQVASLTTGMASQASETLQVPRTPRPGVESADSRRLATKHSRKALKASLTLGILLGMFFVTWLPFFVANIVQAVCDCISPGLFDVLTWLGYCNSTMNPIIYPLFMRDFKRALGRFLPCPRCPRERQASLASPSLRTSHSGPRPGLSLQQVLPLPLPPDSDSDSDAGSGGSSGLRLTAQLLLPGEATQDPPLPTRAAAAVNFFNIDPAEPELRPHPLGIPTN

| Compound | IC50 [1] [nM] | IC50 [2] [nM] | further results |
| --- | --- | --- | --- |
| CNc1nn2c(OC)cc(-c3cccnc3)nc2c1S(=O)(=O)c1ccccc1 [1.2.10(3), 2-methylamino-7-methoxy-5-(pyridin-3-yl)-3-phenylsulfonyl-pyrazolo[1,5-a]pyrimidine] | 12 | < 10 | – |
| CNc1nn2c(N)cc(C)nc2c1S(=O)(=O)c1ccccc1 [1.2.11(1), 7-amino-5-methyl-2-methylamino-3-phenylsulfonyl-pyrazolo[1,5-a]pyrimidine] | 12 | 0.293 | anxiolytic activity in the elevated plus maze [3]: anxiolytic activity analogous to the activity of control compounds |
| CNc1nn2c(NCCN(C)C)cc(C)nc2c1S(=O)(=O)c1ccccc1 [1.2.12(3), 7-(2-dimethylamino)ethylamino-5-methyl-2-methylamino-3-phenylsulfonyl-pyrazolo[1,5-a]pyrimidine] | 1550 | 69.9 | – |
| CNc1nn2c(N3CCN(C)CC3)cc(C)nc2c1S(=O)(=O)c1ccccc1 [1.2.12(4).HCl] | 173 | 4.19 | – |
| CNc1nn2c(C)c(CCC(=O)N(C)CCN(C)C)c(C)nc2c1S(=O)(=O)c1ccccc1 [1.2.19(2).HCl] | 1680 | 174 | – |
| CNc1nn2c(C)c(CCC(=O)N(C)CCCN(C)C)c(C)nc2c1S(=O)(=O)c1ccccc1 [1.2.19(3).HCl] | 2280 | 291 | – |
| CNc1nn2c(C)c(CCC(=O)N3CCN(C)CC3)c(C)nc2c1S(=O)(=O)c1ccccc1 [1.2.19(4).HCl] | 6060 | 306 | – |
| CNc1nn2c(C)c(N)c(C)nc2c1S(=O)(=O)c1ccccc1.Cl [1.2.22(1), 6-amino-5,7-dimethyl-2-methylamino-3-phenylsulfonyl-pyrazolo[1,5-a]pyrimidine] | – | – | prevention of Scopolamine-disturbed novel object recognition [4, 8]: prevent memory impairment caused by Scopolamine; effect on amnesia caused by MK-801 (latent period, light arm stay, dark arm entries) [5]: decrease amnesia caused by MK-801; effect on Apomorphine-disturbed prepulse inhibition of startle [6]: prevented disturbance of prepulse inhibition of startle caused by Apomorphine |
| CNc1nn2c(C)c(N)c(C)nc2c1S(=O)(=O)c1ccccc1 [1.2.22(1).HCl] | 11.3 | 0.67 | – |
| CNc1nn2c(C)c(CN)c(C)nc2c1S(=O)(=O)c1ccccc1 [1.2.22(2).HCl] | 9 | 0.56 | – |
| CNc1nn2c(C)c(CCN)c(C)nc2c1S(=O)(=O)c1ccccc1 [1.2.22(3).HCl] | 45 | 0.645 | – |
| CNc1nn2c(C)c(CN)c(C)nc2c1S(=O)(=O)c1cccc(Cl)c1 [1.2.22(5).HCl] | 10 | 0.227 | – |
| CNc1nn2c(C)c(N(C)C)c(C)nc2c1S(=O)(=O)c1ccccc1 [1.2.22(18)] | – | – | effect on amnesia caused by Scopolamine (latent period, light arm stay, dark arm entries) [7]: decrease amnesia; prevention of Scopolamine-disturbed novel object recognition [4, 8]: prevent memory impairment caused by Scopolamine; effect on amnesia caused by MK-801 (latent period, light arm stay, dark arm entries) [5]: decrease amnesia caused by MK-801; anxiolytic activity in the elevated plus maze [3]: anxiolytic activity analogous to the activity of control compounds; effect on Apomorphine-disturbed prepulse inhibition of startle [6]: prevented disturbance of prepulse inhibition of startle caused by Apomorphine |
| O=C1CC2(CCCC2)CC(=O)N1CCCCN1CCN(c2ncccn2)CC1 [Buspirone, reference compound] | – | – | anxiolytic effect in the elevated plus maze ([3]; Buspirone 5 mg/kg i.p., 30 minutes before training): well-marked anxiolytic effect |
| Cc1ccc2c(c1)c1c(n2CCc2ccc(C)nc2)CCN(C)C1 [Dimebon, reference compound] | – | – | prevention of Scopolamine-disturbed novel object recognition ([4]; Dimebon 0.1 mg/kg i.p. 5 minutes before training): prevented |
| O=C(CCCN1CCC(O)(c2ccc(Cl)cc2)CC1)c1ccc(F)cc1 [Haloperidol, reference compound] | – | – | effect on Apomorphine-disturbed prepulse inhibition of startle [6]: prevented disturbance of prepulse inhibition of startle caused by Apomorphine |
| O=C1Nc2ccc(Cl)cc2C(c2ccccc2Cl)=NC1O (stereo not drawn) [Lorazepam, reference compound] | – | – | anxiolytic effect in the elevated plus maze ([3]; Lorazepam 0.05 mg/kg i.p., 60 minutes before training): well-marked anxiolytic effect |
| Nc1c2c(nc3ccccc13)CCCC2 [Tacrine, reference compound] | – | – | prevention of Scopolamine-disturbed novel object recognition ([4]; Tacrine 10 mg/kg i.p. 30 minutes before training): prevented |
